The target of test [1] is Bifunctional 3'-5' exonuclease/ATP-dependent helicase WRN (Homo sapiens, UniProt Q14191). The test can be described thus: ADP-Glo Kinase Assay. The method, then:
ATPase activity was measured using the ADP-Glo Kinase Assay following the manufacturers recommended protocol.
(ADP-Glo first removes unused ATP, then detects ADP through luciferase.)

The target in test [2] is T1, Bifunctional 3'-5' exonuclease/ATP-dependent helicase WRN [480-1251] (UniProt Q14191).
T1 construct: 480-1251
The test can be described thus: Biochemical Activity Assays.

Sequence of Bifunctional 3'-5' exonuclease/ATP-dependent helicase WRN (Q14191 whole entry): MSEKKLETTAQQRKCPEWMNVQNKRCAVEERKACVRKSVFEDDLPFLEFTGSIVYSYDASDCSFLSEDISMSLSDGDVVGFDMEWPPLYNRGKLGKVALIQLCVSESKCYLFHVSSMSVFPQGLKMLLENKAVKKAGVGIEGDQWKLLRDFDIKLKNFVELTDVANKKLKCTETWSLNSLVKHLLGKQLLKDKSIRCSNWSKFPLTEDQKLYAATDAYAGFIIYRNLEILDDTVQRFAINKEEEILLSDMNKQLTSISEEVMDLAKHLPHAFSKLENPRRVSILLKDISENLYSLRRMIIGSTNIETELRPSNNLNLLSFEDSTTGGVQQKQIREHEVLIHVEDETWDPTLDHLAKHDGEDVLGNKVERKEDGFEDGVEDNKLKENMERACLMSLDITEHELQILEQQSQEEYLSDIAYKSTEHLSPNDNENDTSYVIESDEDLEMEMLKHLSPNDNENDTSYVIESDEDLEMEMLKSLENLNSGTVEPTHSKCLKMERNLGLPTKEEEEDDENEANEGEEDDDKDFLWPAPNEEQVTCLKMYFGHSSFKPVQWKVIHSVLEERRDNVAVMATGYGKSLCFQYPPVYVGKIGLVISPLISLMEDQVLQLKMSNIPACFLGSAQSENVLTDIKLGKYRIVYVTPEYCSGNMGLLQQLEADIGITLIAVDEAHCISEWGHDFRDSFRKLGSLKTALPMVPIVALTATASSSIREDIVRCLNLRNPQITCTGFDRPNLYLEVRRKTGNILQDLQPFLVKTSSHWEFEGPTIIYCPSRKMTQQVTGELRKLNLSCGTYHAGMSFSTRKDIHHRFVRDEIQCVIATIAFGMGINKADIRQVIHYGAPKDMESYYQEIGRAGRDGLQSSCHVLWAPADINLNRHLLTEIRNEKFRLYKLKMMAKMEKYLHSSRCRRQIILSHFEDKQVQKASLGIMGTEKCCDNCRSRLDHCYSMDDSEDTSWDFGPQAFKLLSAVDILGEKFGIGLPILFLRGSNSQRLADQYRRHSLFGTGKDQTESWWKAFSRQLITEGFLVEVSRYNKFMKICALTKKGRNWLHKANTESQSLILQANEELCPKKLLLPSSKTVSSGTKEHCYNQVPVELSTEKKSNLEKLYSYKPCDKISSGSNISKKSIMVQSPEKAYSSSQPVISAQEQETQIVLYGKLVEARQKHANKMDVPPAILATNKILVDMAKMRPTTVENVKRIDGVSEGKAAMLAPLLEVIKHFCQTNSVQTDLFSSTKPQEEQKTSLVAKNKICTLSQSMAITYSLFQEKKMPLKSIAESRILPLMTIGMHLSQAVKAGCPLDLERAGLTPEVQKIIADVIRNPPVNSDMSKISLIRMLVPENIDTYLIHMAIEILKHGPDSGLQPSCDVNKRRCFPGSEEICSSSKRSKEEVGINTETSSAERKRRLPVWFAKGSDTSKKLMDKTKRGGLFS
T1 sequence (Q14191 480-1251): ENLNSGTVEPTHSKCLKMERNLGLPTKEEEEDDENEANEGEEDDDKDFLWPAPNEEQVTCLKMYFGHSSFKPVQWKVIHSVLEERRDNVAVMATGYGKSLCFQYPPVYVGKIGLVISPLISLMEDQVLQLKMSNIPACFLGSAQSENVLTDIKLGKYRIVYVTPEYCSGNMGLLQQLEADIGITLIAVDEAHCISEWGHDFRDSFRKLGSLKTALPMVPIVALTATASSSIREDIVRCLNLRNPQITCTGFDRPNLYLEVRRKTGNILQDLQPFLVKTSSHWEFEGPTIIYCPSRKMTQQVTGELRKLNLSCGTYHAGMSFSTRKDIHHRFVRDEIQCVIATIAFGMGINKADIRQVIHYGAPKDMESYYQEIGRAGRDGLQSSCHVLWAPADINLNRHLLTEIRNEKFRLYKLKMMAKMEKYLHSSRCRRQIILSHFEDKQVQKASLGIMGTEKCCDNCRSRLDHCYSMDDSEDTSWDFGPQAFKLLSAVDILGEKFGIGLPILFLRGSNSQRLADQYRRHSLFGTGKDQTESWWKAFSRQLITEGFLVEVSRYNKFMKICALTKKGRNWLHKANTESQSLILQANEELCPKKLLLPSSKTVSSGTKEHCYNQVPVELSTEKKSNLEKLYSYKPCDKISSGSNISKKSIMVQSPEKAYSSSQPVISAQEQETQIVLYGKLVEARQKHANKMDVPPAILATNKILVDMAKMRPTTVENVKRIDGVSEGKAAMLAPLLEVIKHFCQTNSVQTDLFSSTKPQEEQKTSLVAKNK

Take `CCc1c(N2CCN(C(=O)c3ncnc(C)c3O)CC2)c(=O)n2nc(-c3cc(F)c4nc(C)oc4c3)nc2n1CC(=O)Nc1ccc(C(F)(F)F)cc1Cl` [WO2025049746, Example 297]: the IC50 in test [1] was determined as 31 nM; in test [2], 32 nM.
For `CCc1c(N2CCN(C(=O)c3ncnc(C)c3O)CC2)c(=O)n2nc(-c3ccc4nn(C)c(C)c4c3)nc2n1CC(=O)Nc1ccc(C(F)(F)F)cc1Cl` [WO2025049746, Example 298], the 50% inhibitory concentration (IC50) in test [1] amounted to 31 nM; in test [2] it was 29 nM.
In the case of `CCc1c(N2CCN(C(=O)c3ncnc(C)c3O)CC2)c(=O)n2nc(-c3cc(C)c4nn(C)cc4c3)nc2n1CC(=O)Nc1ccc(C(F)(F)F)cc1Cl` [WO2025049746, Example 299], the IC50 in test [1] is 29 nM; in test [2], 31 nM.
In the case of `CCc1c(N2CCN(C(=O)c3ncnc(C)c3O)CC2)c(=O)n2nc(-c3cnc4cn(C)nc4c3)nc2n1CC(=O)Nc1ccc(C(F)(F)F)cc1Cl` [WO2025049746, Example 300], the half-inhibitory concentration (IC50) is 68 nM in test [1] and 57 nM in test [2].
With `CCc1c(N2CCN(C(=O)c3ncnc(C)c3O)CC2)c(=O)n2nc(-c3ccc4nn(C)nc4c3)nc2n1CC(=O)Nc1ccc(C(F)(F)F)cc1Cl` [WO2025049746, Example 301], the IC50 came to 33 nM in test [1] and 35 nM in test [2].
Taken in the same sequence, the figures for `CCCn1cc2cc(-c3nc4n(CC(=O)Nc5ccc(C(F)(F)F)cc5Cl)c(CC)c(N5CCN(C(=O)c6ncnc(C)c6O)CC5)c(=O)n4n3)ccc2n1` [WO2025049746, Example 302] were 29 nM and 35 nM.
Turning to `CCc1c(N2CCN(C(=O)c3ncnc(C)c3O)CC2)c(=O)n2nc(-c3ccc4nc(NCC(F)F)oc4c3)nc2n1CC(=O)Nc1ccc(C(F)(F)F)cc1Cl` [WO2025049746, Example 303], the figures for the IC50 in test [1] and in test [2] were 42 nM and 45 nM, respectively.
With `CCc1c(N2CCN(C(=O)c3ncnc(C)c3O)CC2)c(=O)n2nc(-c3cnc4ccn(C)c4c3)nc2n1CC(=O)Nc1ccc(C(F)(F)F)cc1Cl` [WO2025049746, Example 304], the half-inhibitory concentration (IC50) in test [1] was 32 nM; in test [2] it was 29 nM.
Regarding `CCc1c(N2CCN(C(=O)c3ncnc(C)c3O)CC2)c(=O)n2nc(-c3cnc4nccn4c3)nc2n1CC(=O)Nc1ccc(C(F)(F)F)cc1Cl` [WO2025049746, Example 305], the IC50 in test [1] and in test [2] was 48 nM throughout.
In the case of `CCc1c(N2CCN(C(=O)c3ncnc(C)c3O)CC2)c(=O)n2nc(-c3cc4c(cnn4C)cc3C)nc2n1CC(=O)Nc1ccc(C(F)(F)F)cc1Cl` [WO2025049746, Example 306], the IC50 in test [1] and in test [2] was 29700 nM in each case.
Turning to `CCc1c(N2CCN(C(=O)c3ncnc(C)c3O)CC2)c(=O)n2nc(-c3ccc4nc(NC)oc4c3)nc2n1CC(=O)Nc1ccc(C(F)(F)F)cc1Cl` [WO2025049746, Example 307], the IC50 in test [1] and in test [2] was 32 nM throughout.
`CCc1c(N2CCN(C(=O)c3ncnc(C)c3O)CC2)c(=O)n2nc(-c3ccc4c(c3)CN(C)CC4)nc2n1CC(=O)Nc1ccc(C(F)(F)F)cc1Cl` [WO2025049746, Example 308]: the IC50 in test [1] came to 47 nM; in test [2], 49 nM.
Taken in the same sequence, the figures for `CCc1c(N2CCN(C(=O)c3ncnc(C)c3O)CC2)c(=O)n2nc(-c3ccc4c(c3)NC(=O)C4)nc2n1CC(=O)Nc1ccc(C(F)(F)F)cc1Cl` [WO2025049746, Example 309] were 32 nM and 31 nM.
Taken in the same sequence, the figures for `CCc1c(N2CCN(C(=O)c3ncnc(C)c3O)CC2)c(=O)n2nc(-c3cnc4sccc4c3)nc2n1CC(=O)Nc1ccc(C(F)(F)F)cc1Cl` [WO2025049746, Example 310] were 26 nM and 27 nM.
The corresponding values for `CCc1c(N2CCN(C(=O)c3ncnc(C)c3O)CC2)c(=O)n2nc(-c3cc4cnn(C)c4cc3C)nc2n1CC(=O)Nc1ccc(C(F)(F)F)cc1Cl` [WO2025049746, Example 311] are 50 nM and 47 nM.
For the compound `CCc1c(N2CCN(C(=O)c3ncnc(C)c3O)CC2)c(=O)n2nc(-c3ccc4c(c3)c(C)nn4C)nc2n1CC(=O)Nc1ccc(C(F)(F)F)cc1Cl` [WO2025049746, Example 312], the IC50 in test [1] was 35 nM; in test [2] it was 37 nM.
Taken in the same sequence, the figures for `CCc1c(N2CCN(C(=O)c3ncnc(C)c3O)CC2)c(=O)n2nc(-c3cnc4nn(C)cc4c3)nc2n1CC(=O)Nc1ccc(C(F)(F)F)cc1Cl` [WO2025049746, Example 313] were 35 nM and 38 nM.
The corresponding values for `CCc1c(N2CCN(C(=O)c3ncnc(C)c3O)CC2)c(=O)n2nc(-c3ccc4c(c3)nnn4C)nc2n1CC(=O)Nc1ccc(C(F)(F)F)cc1Cl` [WO2025049746, Example 314] are 32 nM and 33 nM.
Turning to `CCc1c(N2CCN(C(=O)c3ncnc(C)c3O)CC2)c(=O)n2nc(-c3ccc4nc(N5CCOCC5)oc4c3)nc2n1CC(=O)Nc1ccc(C(F)(F)F)cc1Cl` [WO2025049746, Example 315], the IC50 in test [1] worked out at 34 nM; in test [2], 33 nM.
In the case of `CCc1c(N2CCN(C(=O)c3ncnc(C)c3O)CC2)c(=O)n2nc(-c3ccc4c(c3)CC(C)(C)N4C)nc2n1CC(=O)Nc1ccc(C(F)(F)F)cc1Cl` [WO2025049746, Example 316], the IC50 was 57 nM in test [1] and 68 nM in test [2].
Taken in the same sequence, the figures for `CCc1c(N2CCN(C(=O)c3ncnc(C)c3O)CC2)c(=O)n2nc(-c3cc(OC(F)F)n4nccc4c3F)nc2n1CC(=O)Nc1ccc(C(F)(F)F)cc1Cl` [WO2025049746, Example 317] were 75 nM and 93 nM.
As to `CCc1c(N2CCN(C(=O)c3ncnc(C)c3O)CC2)c(=O)n2nc(-c3ccc4[nH]c(=O)ccc4c3)nc2n1CC(=O)Nc1ccc(C(F)(F)F)cc1Cl` [WO2025049746, Example 318], the results for the IC50 in test [1] and in test [2] were 23 nM and 24 nM, respectively.
The corresponding values for `CCc1c(N2CCN(C(=O)c3ncnc(C)c3O)CC2)c(=O)n2nc(-c3ccc4nn(CC)cc4c3)nc2n1CC(=O)Nc1ccc(C(F)(F)F)cc1Cl` [WO2025049746, Example 319] are 25 nM and 30 nM.
For `CCc1c(N2CCN(C(=O)c3ncnc(C)c3O)CC2)c(=O)n2nc(-c3cc(F)c4ncccc4c3F)nc2n1CC(=O)Nc1ccc(C(F)(F)F)cc1Cl` [WO2025049746, Example 320], the IC50 in test [1] is 19 nM; in test [2], 22 nM.
As for `CCc1c(N2CCN(C(=O)c3ncnc(C)c3O)CC2)c(=O)n2nc(-c3ccc4c(cnn4C)c3)nc2n1CC(=O)Nc1ccc(C(F)(F)F)cc1Cl` [WO2025049746, Example 321], the figures for the half-inhibitory concentration (IC50) in test [1] and in test [2] were 20 nM and 23 nM, respectively.
As to `CCc1c(N2CCN(C(=O)c3ncnc(C)c3O)CC2)c(=O)n2nc(-c3cc(C(F)(F)F)c4ncccc4c3)nc2n1CC(=O)Nc1ccc(C(F)(F)F)cc1Cl` [WO2025049746, Example 322], the IC50 worked out at 72 nM in test [1] and 96 nM in test [2].
Taken in the same sequence, the figures for `CCc1c(N2CCN(C(=O)c3ncnc(C)c3O)CC2)c(=O)n2nc(-c3ccc4nc(C)ccc4c3)nc2n1CC(=O)Nc1ccc(C(F)(F)F)cc1Cl` [WO2025049746, Example 323] were 26 nM and 28 nM.
The corresponding values for `CCc1c(N2CCN(C(=O)c3ncnc(C)c3O)CC2)c(=O)n2nc(-c3ccc4c(c3)CCC(=O)N4C)nc2n1CC(=O)Nc1ccc(C(F)(F)F)cc1Cl` [WO2025049746, Example 324] are 25 nM and 32 nM.

In general, IC50 refers to the concentration at which inhibition is half-maximal. The low end stands for higher potency, the high end for lower potency.

(Values after BindingDB's records for patent WO2025049746 (Eikon Therapeutics, 2025).)
